SMILES strings stand for the structures. Bridge positions count the residues as written; N and C are the ends. Square brackets hold non-standard residues; d marks the D form. Peptide text beside a SMILES is read from it. Nle = CCCC[C@H](N)C(=O)O

For one assay, the target named is T1, ANP receptor (Sus scrofa, UniProt F1SFW3).
T1 construct: ANP receptor-expressing LLC-PK1 cells; endogenous in cells; host or cells: LLC-PK1 cells
T1 sequence (F1SFW3 29-1057): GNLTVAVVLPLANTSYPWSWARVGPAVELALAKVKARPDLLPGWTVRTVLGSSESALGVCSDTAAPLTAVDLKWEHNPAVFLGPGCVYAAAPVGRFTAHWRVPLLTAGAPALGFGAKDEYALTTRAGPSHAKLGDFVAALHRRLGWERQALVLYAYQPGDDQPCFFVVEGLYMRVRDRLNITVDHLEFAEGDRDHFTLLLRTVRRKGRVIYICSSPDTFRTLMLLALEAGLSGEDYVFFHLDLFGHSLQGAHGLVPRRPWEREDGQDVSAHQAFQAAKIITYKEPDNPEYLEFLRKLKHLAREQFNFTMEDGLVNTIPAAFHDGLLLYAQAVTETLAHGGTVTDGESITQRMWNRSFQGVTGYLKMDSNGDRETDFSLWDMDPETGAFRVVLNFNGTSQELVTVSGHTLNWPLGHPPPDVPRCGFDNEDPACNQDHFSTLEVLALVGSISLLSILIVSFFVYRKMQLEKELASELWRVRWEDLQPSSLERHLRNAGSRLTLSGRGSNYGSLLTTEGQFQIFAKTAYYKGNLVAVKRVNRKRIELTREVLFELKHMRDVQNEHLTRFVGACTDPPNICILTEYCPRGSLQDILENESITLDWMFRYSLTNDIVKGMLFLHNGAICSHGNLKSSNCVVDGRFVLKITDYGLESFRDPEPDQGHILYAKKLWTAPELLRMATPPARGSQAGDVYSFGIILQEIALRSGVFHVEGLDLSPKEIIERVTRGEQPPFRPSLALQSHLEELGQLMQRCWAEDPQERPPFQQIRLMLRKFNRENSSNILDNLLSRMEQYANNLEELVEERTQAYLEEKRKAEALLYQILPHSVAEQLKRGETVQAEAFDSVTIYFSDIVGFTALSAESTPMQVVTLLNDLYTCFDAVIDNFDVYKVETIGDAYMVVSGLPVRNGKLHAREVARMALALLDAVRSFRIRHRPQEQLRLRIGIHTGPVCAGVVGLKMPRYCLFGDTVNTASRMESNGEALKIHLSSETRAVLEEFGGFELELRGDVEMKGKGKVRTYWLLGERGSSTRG
Briefly: cGMP production in ANP receptor-expressing LLC-PK1 cells. It counts as cell-based. To be noted: 30 min stimulation, 10^-6M through 10^-12M. As to the method:
The bifunctional hormone was tested on ANP receptor-expressing LLC-PK1 cells and on MCR1 receptor-expressing B16-F1 cells. Both cell types were cultured 24 hours before the stimulation, in 96-well plates, at a concentration of 1.0×10^5 cells/ml. Before stimulation, cells were starved 2 hours in DPBS only and incubated 10 min in assay buffer (DPBS containing 20 mM HEPES, 0.1% BSA and 500 μM IBMX). The dose response curve of the bifunctional hormone was done for 30 minutes with concentrations of 10^−6M through 10^−12M. Supernatant was collected and cAMP (B16-F1) or cGMP (LLC-PK1) was measured with a radiolabeled kit from GE Healthcare Company.
`CCCC[C@@H]1NC(=O)[C@H](CCCNC(=N)N)NC(=O)CNC(=O)CNC(=O)[C@H](Cc2ccccc2)NC(=O)[C@H](Cc2c[nH]cn2)NC(=O)[C@@H](NC(=O)[C@@H](N)CCCC)CCC(=O)NCCCC[C@@H](C(=O)N[C@@H](Cc2ccc(O)cc2)C(=O)N[C@@H](CCCNC(=N)N)C(=O)N[C@@H](Cc2c[nH]cn2)C(=O)N[C@H](Cc2ccccc2)C(=O)N[C@@H](CCCNC(=N)N)C(=O)N[C@@H](Cc2c[nH]c3ccccc23)C(N)=O)NC(=O)[C@H](CO)NC(=O)[C@H]([C@@H](C)CC)NC(=O)[C@H](CCCNC(=N)N)NC(=O)[C@H](CC(=O)O)NC1=O` [SEQ ID NO: 29, Nle-[E-H-F-G-G-R-Nle-D-R-I-S-K]-Y-R-H-f-R-W-NH2] (H-[Nle]EHFGGR[Nle]DRISKYRH[dF]RW-NH2; lactam 2-13) gave an EC50 of 1.43 µM.

The assay is the same for the next values; noted with them: 30 min stimulation, 10^-6M through 10^-12M, NR = No response detected.
Compound `CC[C@H](C)[C@@H]1NC(=O)[C@H](CCCNC(=N)N)NC(=O)[C@H](CC(=O)O)NC(=O)[C@H](CCSC)NC(=O)[C@H](CCCNC(=N)N)NC(=O)CNC(=O)CNC(=O)[C@H](Cc2ccccc2)NC(=O)[C@H](Cc2c[nH]cn2)NC(=O)[C@@H](NC(=O)[C@H](CCSC)NC(=O)[C@@H]2CCCN2C(=O)[C@H](CCCCN)NC(=O)CNC(=O)[C@H](Cc2c[nH]c3ccccc23)NC(=O)[C@H](CCCNC(=N)N)NC(=O)[C@@H](Cc2ccccc2)NC(=O)[C@H](Cc2c[nH]cn2)NC(C)=O)CSSC[C@@H](C(=O)N[C@@H](Cc2ccc(O)cc2)C(=O)N[C@@H](CCCNC(=N)N)C(N)=O)NC(=O)[C@H](CO)NC1=O` [SEQ ID NO: 31, Ac-H-f-R-W-G-K-P-M-[C-H-F-G-G-R-M-D-R-I-S-C]-Y-R-NH2] (Ac-H[dF]RWGKPMCHFGGRMDRISCYR-NH2; disulfide 9-20) returned an EC50 of 0.0743 µM.

The compound `CCCC[C@@H]1NC(=O)[C@H](CCCNC(=N)N)NC(=O)CNC(=O)CNC(=O)[C@H](Cc2ccccc2)NC(=O)[C@H](Cc2c[nH]cn2)NC(=O)[C@@H](NC(=O)[C@H](CCCC)NC(=O)[C@@H]2CCCN2C(=O)[C@H](CCCCN)NC(=O)CNC(=O)[C@H](Cc2c[nH]c3ccccc23)NC(=O)[C@H](CCCNC(=N)N)NC(=O)[C@@H](Cc2ccccc2)NC(=O)[C@H](Cc2c[nH]cn2)NC(C)=O)CSSC[C@@H](C(=O)N[C@@H](Cc2ccc(O)cc2)C(=O)N[C@@H](CCCNC(=N)N)C(N)=O)NC(=O)[C@H](CO)NC(=O)[C@H]([C@@H](C)CC)NC(=O)[C@H](CCCNC(=N)N)NC(=O)[C@H](CC(=O)O)NC1=O` [SEQ ID NO: 34, Ac-H-f-R-W-G-K-P-Nle-[C-H-F-G-G-R-Nle-D-R-I-S-C]-Y-R-NH2] (Ac-H[dF]RWGKP[Nle]CHFGGR[Nle]DRISCYR-NH2; disulfide 9-20) displayed an EC50 of 0.132 µM. Compared with the last compound, the EC50 is about 1.8-fold higher.

As to `CCCC[C@@H]1NC(=O)[C@H](CCCNC(=N)N)NC(=O)CNC(=O)CNC(=O)[C@H](Cc2ccccc2)NC(=O)[C@@H](NC(=O)[C@H](CCCC)NC(=O)[C@@H]2CCCN2C(=O)[C@H](CCCCN)NC(=O)CNC(=O)[C@H](Cc2c[nH]c3ccccc23)NC(=O)[C@H](CCCNC(=N)N)NC(=O)[C@@H](Cc2ccccc2)NC(=O)[C@H](Cc2c[nH]cn2)NC(C)=O)CSSC[C@@H](C(=O)N[C@@H](CC(N)=O)C(=O)N[C@@H](CO)C(=O)N[C@@H](Cc2ccccc2)C(=O)N[C@@H](CCCNC(=N)N)C(=O)N[C@@H](Cc2ccc(O)cc2)C(N)=O)NC(=O)CNC(=O)[C@H](CC(C)C)NC(=O)CNC(=O)[C@H](CO)NC(=O)[C@H](CCC(N)=O)NC(=O)[C@H](C)NC(=O)CNC(=O)[C@H]([C@@H](C)CC)NC(=O)[C@H](CCCNC(=N)N)NC(=O)[C@H](CC(=O)O)NC1=O` [SEQ ID NO: 35, Ac-H-f-R-W-G-K-P-Nle-[C-F-G-G-R-Nle-D-R-I-G-A-Q-S-G-L-G-C]-N-S-F-R-Y-NH2] (Ac-H[dF]RWGKP[Nle]CFGGR[Nle]DRIGAQSGLGCNSFRY-NH2; disulfide 9-25), the EC50 turned out to be 0.216 µM. This EC50 is about 1.6-fold higher than that of the compound before.

`CC[C@H](C)[C@@H]1NC(=O)[C@H](CCCNC(=N)N)NC(=O)[C@H](CC(=O)O)NC(=O)[C@H](CCSC)NC(=O)[C@H](CCCNC(=N)N)NC(=O)CNC(=O)CNC(=O)[C@H](Cc2ccccc2)NC(=O)[C@@H](NC(=O)[C@H](CO)NC(=O)[C@H](CO)NC(=O)[C@H](CCCNC(=N)N)NC(=O)[C@H](CCCNC(=N)N)NC(=O)CNC(=O)[C@H](Cc2c[nH]c3ccccc23)NC(=O)[C@H](CCCNC(=N)N)NC(=O)[C@H](Cc2ccccc2)NC(=O)[C@H](Cc2c[nH]cn2)NC(=O)[C@H](CCC(=O)O)NC(=O)[C@@H](N)CCSC)CSSC[C@@H](C(=O)N[C@@H](CC(N)=O)C(=O)N[C@@H](CO)C(=O)N[C@@H](Cc2ccccc2)C(=O)N[C@@H](CCCNC(=N)N)C(=O)N[C@@H](Cc2ccc(O)cc2)C(N)=O)NC(=O)CNC(=O)[C@H](CC(C)C)NC(=O)CNC(=O)[C@H](CO)NC(=O)[C@H](CCC(N)=O)NC(=O)[C@H](C)NC(=O)CNC1=O` [SEQ ID NO: 36, M-E-H-F-R-W-G-R-R-S-S-[C-F-G-G-R-M-D-R-I-G-A-Q-S-G-L-G-C]-N-S-F-R-Y-NH2] (H-MEHFRWGRRSSCFGGRMDRIGAQSGLGCNSFRY-NH2; disulfide 12-28) had an EC50 of 0.0331 µM.

`CC[C@H](C)[C@@H]1NC(=O)[C@H](CCCNC(=N)N)NC(=O)[C@H](CC(=O)O)NC(=O)[C@H](CCSC)NC(=O)[C@H](CCCNC(=N)N)NC(=O)CNC(=O)CNC(=O)[C@H](Cc2ccccc2)NC(=O)[C@@H](NC(=O)[C@H](CO)NC(=O)[C@H](CO)NC(=O)[C@H](CCCNC(=N)N)NC(=O)[C@H](CCCNC(=N)N)NC(=O)CNC(=O)[C@H](Cc2c[nH]c3ccccc23)NC(=O)[C@H](CCCNC(=N)N)NC(=O)[C@H](Cc2ccccc2)NC(=O)[C@H](Cc2c[nH]cn2)NC(C)=O)CSSC[C@@H](C(=O)N[C@@H](CC(N)=O)C(=O)N[C@@H](CO)C(=O)N[C@@H](Cc2ccccc2)C(=O)N[C@@H](CCCNC(=N)N)C(=O)N[C@@H](Cc2ccc(O)cc2)C(N)=O)NC(=O)CNC(=O)[C@H](CC(C)C)NC(=O)CNC(=O)[C@H](CO)NC(=O)[C@H](CCC(N)=O)NC(=O)[C@H](C)NC(=O)CNC1=O` [SEQ ID NO: 38, Ac-H-F-R-W-G-R-R-S-S-[C-F-G-G-R-M-D-R-I-G-A-Q-S-G-L-G-C]-N-S-F-R-Y-NH2] (Ac-HFRWGRRSSCFGGRMDRIGAQSGLGCNSFRY-NH2; disulfide 10-26) registered an EC50 of 0.0069 µM.

As to `CC[C@H](C)[C@@H]1NC(=O)[C@H](CCCNC(=N)N)NC(=O)[C@H](CC(=O)O)NC(=O)[C@H](CCSC)NC(=O)[C@H](CCCNC(=N)N)NC(=O)CNC(=O)CNC(=O)[C@H](Cc2ccccc2)NC(=O)[C@@H](NC(=O)[C@H](CO)NC(=O)[C@H](CO)NC(=O)[C@H](CCCNC(=N)N)NC(=O)[C@H](CCCNC(=N)N)NC(=O)CNC(=O)[C@H](Cc2c[nH]c3ccccc23)NC(=O)[C@H](CCCNC(=N)N)NC(=O)[C@@H](Cc2ccccc2)NC(=O)[C@H](Cc2c[nH]cn2)NC(C)=O)CSSC[C@@H](C(=O)N[C@@H](CC(N)=O)C(=O)N[C@@H](CO)C(=O)N[C@@H](Cc2ccccc2)C(=O)N[C@@H](CCCNC(=N)N)C(=O)N[C@@H](Cc2ccc(O)cc2)C(N)=O)NC(=O)CNC(=O)[C@H](CC(C)C)NC(=O)CNC(=O)[C@H](CO)NC(=O)[C@H](CCC(N)=O)NC(=O)[C@H](C)NC(=O)CNC1=O` [SEQ ID NO: 39, Ac-H-f-R-W-G-R-R-S-S-[C-F-G-G-R-M-D-R-I-G-A-Q-S-G-L-G-C]-N-S-F-R-Y-NH2] (Ac-H[dF]RWGRRSSCFGGRMDRIGAQSGLGCNSFRY-NH2; disulfide 10-26), the EC50 came out at 0.0521 µM.

Values taken from patent publication US8822413B2, “Bifunctional hormone having alpha-MSH activity and natriuretic peptide activity and uses thereof” (Theratechnologies Inc., priority 2007, dated 2014).
